pIC50: −log10 of the molar value.
Tests used:
H1975 = test: Cell antiproliferative assay (CTG, 72 h); type: cell-based; details: Homo sapiens, NCI-H1975, H1975 (EGFR T790M/L858R)
Description: (§1) H1975 has EGFR T790M/L858R dual mutation, PC-9 has EGFR exon 19 deletion mutation, and HCC827 has exon 19 deletion mutation. CellCounting Lite 2.0, Trypsin EDTA, 37 °C CO2 incubator, cell counter, EnVision Serial No.1050454.
(§2) • (A) Trypsin EDTA was used to digest log-phase cells, medium was added to terminate the digestion reaction, and a cell suspension was prepared by blowing and mixing with a pipette. • (B) Cell concentration was determined using Vi-cell, and a suspension of 15,000-25,000 cells per milliliter was made depending on the purpose of the experiment and the characteristics of the cells. • (C) After the cell suspension was ready, it was gently mixed and each well was added with 100µL so that the cell density to be tested was 1,500- 2,500 per well.
(§3) • A) About 2 mg of compound was weighed, and the volume of DMSO required was calculated according to the formula: compound mass (mg)*compound purity (%)/compound molecular weight*1000. • (B) The inoculated cell culture plates were incubated in an incubator. About 24 hours later, compounds were added at gradient concentrations. • (C) 10mM of compound reservoir solution was diluted to […] with medium, and […] of the compound solution was added sequentially to the second column of the deep-well plate, and […] of medium containing 0.5% DMSO was added to the third to eleventh columns. • D) Gradient dilution: 125 µl of solution was pipetted from the second column and added to the third column, after mixing; another 125 µl of solution was pipetted from the third column and added to the fourth column, and the operation was repeated until the tenth column. • (E) 25 µl of compound was pipetted from the deep-well plate into a 96-well culture plate using a multichannel pipette, and each compound was run in triplicate on the 96-well plate. A 1:4 concentration gradient was established on the 96-well plate, with a final highest concentration of 10,000 nM.
(§4) • (A) 96-well plates were incubated in an incubator for 72 h. The effect of the compounds was observed under an inverted microscope. • (B) 25 µl of CTG solution was added to each well. The plate was incubated on a shaker for 10 minutes and the OD value of each well was read.
(§5) The survival rate ( % Cell Viability) was calculated using the following formula: %Cell Viability = 100% × (Lum_Sample−Lum_LC)/(Lum_HC−Lum_LC) [formula] • Lum_HC: Cell reading of 0.1% DMSO control group • Lum_Sample: Cell readings of compound addition group • Lum_LC: Reading of blank medium • IC50 values were obtained by curve fitting using GraphPad Prism 8 software.

HCC827 = test: Cell antiproliferative assay (CTG, 72 h); type: cell-based; details: Homo sapiens, HCC827 (exon 19 deletion)
Description: as §1, §2, §3, §4, §5

PC-9 = test: Cell antiproliferative assay (CTG, 72 h); type: cell-based; details: Homo sapiens, PC-9 (EGFR exon 19 deletion)
Description: as §1, §2, §3, §4, §5

[1] = molecular target: EGFR in BAF3-LTC (Baf3-L858R-T780M-C797S) (Homo sapiens, UniProt P00533, C797S/L858R/T790M); test: EGFR PROTAC HTRF experiment (total EGFR degradation); type: cell-based; details: BAF3-LTC cells, 16 hours incubation
EGFR in BAF3-LTC (Baf3-L858R-T780M-C797S), sequence (P00533 25-1210 T790M/C797S/L858R): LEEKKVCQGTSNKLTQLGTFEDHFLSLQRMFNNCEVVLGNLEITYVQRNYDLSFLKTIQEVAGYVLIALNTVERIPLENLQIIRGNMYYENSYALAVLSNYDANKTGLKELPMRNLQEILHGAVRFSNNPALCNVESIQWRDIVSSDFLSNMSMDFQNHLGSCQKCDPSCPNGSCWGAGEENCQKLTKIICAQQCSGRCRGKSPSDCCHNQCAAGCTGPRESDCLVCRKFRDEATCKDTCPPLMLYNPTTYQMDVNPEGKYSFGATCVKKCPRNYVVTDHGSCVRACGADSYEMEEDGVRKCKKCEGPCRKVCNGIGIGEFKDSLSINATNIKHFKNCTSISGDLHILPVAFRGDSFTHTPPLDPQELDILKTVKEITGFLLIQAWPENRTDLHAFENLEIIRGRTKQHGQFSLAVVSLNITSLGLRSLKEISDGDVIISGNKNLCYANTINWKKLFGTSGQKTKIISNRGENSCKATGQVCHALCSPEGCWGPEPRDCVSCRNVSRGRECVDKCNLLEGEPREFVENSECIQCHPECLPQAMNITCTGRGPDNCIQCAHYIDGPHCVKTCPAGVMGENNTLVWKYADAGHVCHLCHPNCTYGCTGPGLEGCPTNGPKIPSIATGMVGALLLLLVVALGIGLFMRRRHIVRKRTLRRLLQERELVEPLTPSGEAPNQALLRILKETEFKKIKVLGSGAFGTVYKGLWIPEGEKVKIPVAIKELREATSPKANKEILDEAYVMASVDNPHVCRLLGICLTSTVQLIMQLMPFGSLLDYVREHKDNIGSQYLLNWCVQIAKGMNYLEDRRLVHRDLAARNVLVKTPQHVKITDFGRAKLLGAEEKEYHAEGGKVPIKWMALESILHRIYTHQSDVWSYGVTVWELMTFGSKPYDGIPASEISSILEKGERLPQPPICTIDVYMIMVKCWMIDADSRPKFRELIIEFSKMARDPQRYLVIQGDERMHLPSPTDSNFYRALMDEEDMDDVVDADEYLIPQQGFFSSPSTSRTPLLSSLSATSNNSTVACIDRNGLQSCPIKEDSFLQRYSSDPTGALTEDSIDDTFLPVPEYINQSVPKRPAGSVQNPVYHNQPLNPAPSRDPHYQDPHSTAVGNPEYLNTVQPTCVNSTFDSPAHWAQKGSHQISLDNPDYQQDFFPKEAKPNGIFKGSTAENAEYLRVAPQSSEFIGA

[2] = molecular target: EGFR in BAF3-DTC (Baf3-19del-T780M-C797S) (Homo sapiens, UniProt P00533, C797S/DEL746-750/T790M); test: as above; type: cell-based; details: BAF3-DTC cells, 16 hours incubation
EGFR in BAF3-DTC (Baf3-19del-T780M-C797S), sequence (P00533 with tags, fused parts or gaps DEL746-750/T790M/C797S): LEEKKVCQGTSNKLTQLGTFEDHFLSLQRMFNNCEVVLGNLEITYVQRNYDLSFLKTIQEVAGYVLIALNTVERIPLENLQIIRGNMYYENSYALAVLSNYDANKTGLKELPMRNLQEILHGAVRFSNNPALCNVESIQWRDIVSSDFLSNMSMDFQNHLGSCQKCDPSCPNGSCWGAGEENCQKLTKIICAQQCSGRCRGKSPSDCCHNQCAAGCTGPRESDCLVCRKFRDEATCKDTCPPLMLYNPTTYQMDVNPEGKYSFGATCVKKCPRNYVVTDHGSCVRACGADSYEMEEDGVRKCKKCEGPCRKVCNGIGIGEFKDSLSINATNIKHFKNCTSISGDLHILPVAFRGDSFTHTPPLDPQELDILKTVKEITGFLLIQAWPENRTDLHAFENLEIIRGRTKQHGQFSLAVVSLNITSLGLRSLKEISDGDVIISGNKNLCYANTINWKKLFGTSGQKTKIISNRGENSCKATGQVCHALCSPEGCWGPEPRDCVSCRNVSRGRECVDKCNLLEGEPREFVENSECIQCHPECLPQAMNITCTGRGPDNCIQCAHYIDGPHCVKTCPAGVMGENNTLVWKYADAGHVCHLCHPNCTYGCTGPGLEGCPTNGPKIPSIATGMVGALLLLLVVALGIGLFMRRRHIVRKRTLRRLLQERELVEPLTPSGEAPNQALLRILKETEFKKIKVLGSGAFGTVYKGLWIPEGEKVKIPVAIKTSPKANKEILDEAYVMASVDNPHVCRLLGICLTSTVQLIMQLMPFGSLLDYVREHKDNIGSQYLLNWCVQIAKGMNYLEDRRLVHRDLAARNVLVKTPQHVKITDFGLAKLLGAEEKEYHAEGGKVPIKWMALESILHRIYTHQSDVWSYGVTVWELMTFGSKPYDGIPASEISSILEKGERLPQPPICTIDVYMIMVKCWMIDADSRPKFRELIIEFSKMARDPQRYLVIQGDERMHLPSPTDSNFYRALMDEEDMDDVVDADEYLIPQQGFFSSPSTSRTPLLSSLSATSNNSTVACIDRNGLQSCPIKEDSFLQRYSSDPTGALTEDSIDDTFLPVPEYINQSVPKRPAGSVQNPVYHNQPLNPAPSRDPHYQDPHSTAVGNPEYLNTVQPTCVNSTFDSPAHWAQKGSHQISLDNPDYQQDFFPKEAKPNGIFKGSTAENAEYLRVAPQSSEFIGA

[3] = Pharmacokinetic test on male SD rats; type: in vivo; details: gavage (p.o.), 10 mg/kg, plasma; for AUC(0-inf) / AUC(0-t) / Cmax / MRT last / Tmax: rat, po
Description: Healthy adult SD rats, male, a total of 3, 6-8 weeks old; Weighing 200-300 grams.
EDTA-Na2 anticoagulant: 11.2 g of EDTA-Na2 was weighted and placed into a reagent bottle. 100 mL of physiological saline was added and the mixture was shaken until completely dissolved. After preparation, the solution was aliquoted into 1.5 mL centrifuge tubes, each containing approximately 20 uL, for use in whole blood sample collection.
Approximately 10 mg of the test sample was accurately weighed. DMSO accounting for 10% of the total volume was added to dissolve the sample. Subsequently, 0.5% MC solvent accounting for 90% of the total volume was slowly added while stirring. The mixture was sonicated and vortexed evenly, and a visually homogeneous preparation solution was obtained, with a concentration of 1 mg/mL. This solution should be freshly prepared immediately before use.
0.2 mL of the sample was pipetted into a 1.5 mL centrifuge tube and stored at -80°C for concentration analysis of the dosing solution.
Animals were kept in rat cages and fasted for no less than 10 hours on the day before the experiment, but were allowed to drink water. The animals were individually weighed and marked on their tails. Prior to dosing, blank blood samples were collected from each animal via the tail vein.
• Administration route: gavage (p.o.) • Dosage concentration: 1mg/ml • Dosage: 10 mg/kg • Dosage volume: 10 mL/kg
Operation process: The rat was grasped with a left hand protected by a bite-resistant glove and held in an upright position. The gavage needle was inserted through the mouth and advanced towards the pharynx. The needle was advanced gently, ensuring no significant resistance was felt. The drug was then injected into the stomach.
At 0.5 h, 1 h, 2 h, 4 h, 6 h, 8 h, 12 h, and 24 h post-dosing, 0.1-0.2 mL of whole blood was collected from each test animal into EDTA-Na2 anticoagulant tubes. The tubes were mixed by inverting 3-4 times. The samples were centrifuged at 2000 × g and 4 °C for 5 minutes. The upper plasma layer was to separated, promptly transferred to -80 °C for storage until analysis. The blood was collected via tail vein.
A quantitative detection method for the test compound was established using a Shimadzu liquid chromatography system and a Triple Quad™ 6500+ AB mass spectrometry (MS) system. This method was used to analyze the concentration of the parent drug in plasma. The variation of the analysis results was controlled using quality control (QC) samples, and the accuracy of the QC samples was required to be within the range of 80%-120%.
The main pharmacokinetic parameters were calculated using the non-compartmental model (NCA) with the WinNonlin Phoenix software. These parameters include: area under the concentration-time curve (AUC(0-t) and AUC(0-∞)), elimination half-life (T1/2), maximum plasma concentration (Cmax), and time to reach maximum plasma concentration (Tmax), etc.

pIC50 (H1975)	pIC50 (HCC827)	pIC50 (PC-9)	DC50 [1] [nM]	Dmax [1] [%]	DC50 [2] [nM]	Dmax [2] [%]	HL_ [3] [h]	AUC(0-inf) [3] [ng·h/mL]	AUC(0-t) [3] [ng·h/mL]	Cmax [3] [ng/mL]	MRT last [3] [h]	Tmax [3] [h]	SMILES
							3.47	2090	2060	227	7.32	5.33	COc1cc(N2CCN(C(=O)CN3CCC(c4ccc(NC5CCC(=O)NC5=O)cc4)CC3)CC2)ccc1Nc1ncc(Cl)c(Nc2ccccc2C(C)=O)n1 (centres unmarked) [Control Compound 1, reference compound]
			10 to 100	70 to 100	100 to 1000	70 to 100							CCc1cc(Nc2ncc(Cl)c(Nc3ccccc3C(=O)NC)n2)c(OC)cc1N1CCN(C(=O)CN2CCC(c3ccc(NC4CCC(=O)NC4=O)cc3C)CC2)CC1 (centres unmarked) [Compound T-090]
> 8.00	7.00 to 8.00	6.00 to 7.00											CNC(=O)c1ccccc1Nc1nc(Nc2cc(C)c(N3CCN(C(=O)CN4CCC(c5ccc6c(N7CCC(=O)NC7=O)nn(C)c6c5)C(F)(F)C4)CC3)cc2OC)ncc1Cl (centres unmarked) [Compound T-049]
6.00 to 7.00	6.00 to 7.00	6.00 to 7.00											CNC(=O)c1ccccc1Nc1nc(Nc2cc(C)c(N3CCN(C(=O)CC4(O)CCN(c5ccc6c(N7CCC(=O)NC7=O)nn(C)c6c5)CC4)CC3)cc2OC)ncc1Cl [Compound T-086]
7.00 to 8.00	6.00 to 7.00	6.00 to 7.00											CNC(=O)c1ccccc1Nc1nc(Nc2ccc(N3CCN(C(=O)CN4CCC(c5ccc6c(N7CCC(=O)NC7=O)nn(C)c6c5)C(F)(F)C4)CC3)cc2OC)ncc1Cl (centres unmarked) [Compound T-047]
							5.45	10200	8600	714	9.06	6	CCc1cc(Nc2ncc(Cl)c(Nc3ccccc3C(=O)NC)n2)c(OC)cc1N1CCN(C(=O)CN2CCC(c3ccc(NC4CCC(=O)NC4=O)cc3)CC2)[C@@H](C)C1 (some centres unmarked) [Compound T-078]
			10 to 100	70 to 100	10 to 100	70 to 100							CCc1cc(Nc2ncc(Cl)c(Nc3ccccc3C(=O)NC)n2)c(OC)cc1N1CCN(C(=O)CN2CCC(c3c(F)cc(NC4CCC(=O)NC4=O)cc3F)CC2)CC1 (centres unmarked) [Compound T-068]
							7.97	20200	16900	1120	9.66	5.33	CCc1cc(Nc2ncc(Cl)c(Nc3ccccc3C(=O)NC)n2)c(OC)cc1N1CCN(C(=O)CN2CCC(c3ccc(NC4CCC(=O)NC4=O)cc3C(F)(F)F)CC2)CC1 (centres unmarked) [Compound T-074]
7.00 to 8.00	6.00 to 7.00	6.00 to 7.00					4.02	7990	7720	673	4.67	4.67	CCc1cc(Nc2ncc(Cl)c(Nc3ccccc3C(=O)NC)n2)c(OC)cc1N1CCN(C(=O)CN2CCC(c3ccc(NC4CCC(=O)NC4=O)cc3)CC2)[C@H](C)C1 (some centres unmarked) [Compound T-079]

The remaining lines, values behind:

SMILES	pIC50 (H1975)	pIC50 (HCC827)	pIC50 (PC-9)	DC50 [1] [nM]	Dmax [1] [%]	DC50 [2] [nM]	Dmax [2] [%]	HL_ [3] [h]	AUC(0-inf) [3] [ng·h/mL]	AUC(0-t) [3] [ng·h/mL]	Cmax [3] [ng/mL]	MRT last [3] [h]	Tmax [3] [h]
CCc1cc(Nc2ncc(Cl)c(Nc3ccccc3C(=O)NC)n2)c(OC)cc1N1CCN(C(=O)CN2CCN(c3ccc4c(N5CCC(=O)NC5=O)nn(C)c4c3)CC2)CC1 [Compound T-045]	6.00 to 7.00	6.00 to 7.00	6.00 to 7.00										
C=Cc1cc(Nc2ncc(Cl)c(Nc3ccccc3C(=O)NC)n2)c(OC)cc1N1CCN(C(=O)CN2CCC(c3ccc(NC4CCC(=O)NC4=O)cc3)CC2)CC1 (centres unmarked) [Compound T-003]	7.00 to 8.00	7.00 to 8.00	6.00 to 7.00	10 to 100	70 to 100	10 to 100	70 to 100						
COc1cc(N2CCN(C(=O)CN3CCC(c4ccc(NC5CCC(=O)NC5=O)cc4)CC3)CC2)ccc1Nc1ncc(Cl)c(Nc2ccccc2-c2ncc[nH]2)n1 (centres unmarked) [Compound T-011]	7.00 to 8.00	6.00 to 7.00	6.00 to 7.00	100 to 1000	50 to 70								
CNC(=O)c1ccccc1Nc1nc(Nc2cc(C)c(N3CCN(CCN4CCC(c5ccc(NC6CCC(=O)NC6=O)cc5)CC4)CC3)cc2OC)ncc1Cl (centres unmarked) [Compound T-021]	> 8.00	7.00 to 8.00	6.00 to 7.00	100 to 1000	70 to 100	100 to 1000	70 to 100						
CCc1cc(Nc2ncc(Cl)c(Nc3ccccc3C(=O)NC)n2)c(OC)cc1N1CC2CCC(C1)N2C(=O)CN1CCC(c2ccc(NC3CCC(=O)NC3=O)cc2)CC1 (centres unmarked) [Compound T-109]	7.00 to 8.00	7.00 to 8.00	7.00 to 8.00	10 to 100	50 to 70	10 to 100	50 to 70						
COc1cc(N2CCN(C(=O)CN3CCC(c4ccc(NC5CCC(=O)NC5=O)cc4)CC3)CC2)ccc1Nc1ncc(Cl)c(Nc2ccccc2-n2ccnn2)n1 (centres unmarked) [Compound T-007]	7.00 to 8.00	6.00 to 7.00	6.00 to 7.00	100 to 1000	70 to 100								
CCc1cc(Nc2ncc(Cl)c(Nc3ccccc3C(=O)NC)n2)c(OC)cc1N1CCN(C(=O)CN2CCC(c3ccc4c(N5CCC(=O)NC5=O)nn(C)c4c3)CC2)CC1 [Compound T-043]	> 8.00	7.00 to 8.00	6.00 to 7.00										
CCc1cc(Nc2ncc(Br)c(Nc3ccccc3C(=O)NC)n2)c(OC)cc1N1CCN(C(=O)CN2CCC(c3ccc4c(N5CCC(=O)NC5=O)nn(C)c4c3)C(F)(F)C2)CC1 (centres unmarked) [Compound T-014]				≤ 10	70 to 100	≤ 10	70 to 100	3.37	4560	4510	721	5.88	3.33
CCc1cc(Nc2ncc(Cl)c(Nc3ccccc3C(=O)NC)n2)c(OC)cc1N1CCN(C(=O)CN2CCC(c3ccc4c(N5CCC(=O)NC5=O)nn(C)c4c3)C(F)(F)C2)CC1 (centres unmarked) [Compound T-013]				≤ 10	70 to 100	10 to 100	70 to 100	3.09	6730	6690	899	6.27	4

Reference: patent EP4714948A1, “COMPOUND USED FOR EGFR PROTEIN DEGRADATION, AND USE THEREOF” (TYK Medicines, Inc., priority 2023, dated 2024)
